Biological target: T1, mineralocorticoid receptor (MR) (Homo sapiens, UniProt P08235)
T1 construct: expressed in transfected cells; host or cells: Huh7 (human liver cells)
T1 sequence (P08235 726-964 limits assumed): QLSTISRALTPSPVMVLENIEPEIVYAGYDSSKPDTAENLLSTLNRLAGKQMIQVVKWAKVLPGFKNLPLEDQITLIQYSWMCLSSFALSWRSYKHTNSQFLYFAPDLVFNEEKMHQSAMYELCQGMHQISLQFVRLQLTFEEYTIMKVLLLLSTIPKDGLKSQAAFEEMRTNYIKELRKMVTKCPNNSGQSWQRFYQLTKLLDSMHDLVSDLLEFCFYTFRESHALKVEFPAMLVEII
Assay: Cell-based Gal4 response element-controlled luciferase reporter assay (MR antagonism)
Conditions: Huh7 human liver cells transfected with Gal4 DBD-MR LBD fusion and luciferase reporter; block of agonist-induced activation; overnight incubation
In short: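 Transiently transfected Huh7 cells were treated with agonist at 70-80% of full activation plus compounds for 18-20 h in medium with charcoal/dextran-stripped serum. Luciferase read-out was normalized to β-galactosidase (ONPG, OD420); IC50 came from curve fitting.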

IC50 [µM] | Compound
> 1 | N#Cc1ccc(N2N=C3c4ccc(OS(=O)(=O)C(F)(F)F)cc4OCC3C2c2ccc(F)cc2)cc1Cl (racemic) [Example 92, 2-(3-chloro-4-cyanophenyl)-3-(4-fluorophenyl)-2,3,3a,4-tetrahydrochromeno[4,3-c]pyrazol-7-yl trifluoromethanesulfonate]
> 1 | N#Cc1ccc(N2N=C3c4ccc(C(=O)NCCOCC(=O)O)cc4CC[C@@H]3[C@@H]2c2ccc(F)cc2)cc1Cl (racemic) [Example 109, (±)-2-(2-((3RS,3aRS)-2-(3-chloro-4-cyanophenyl)-3-(4-fluorophenyl)-3,3a,4,5-tetrahydro-2H-benzo[g]indazole-7-carboxamido)ethoxy)acetic acid]
0.127 | N#Cc1ccc(N2N=C3c4ccc(C(=O)O)cc4CCC3C2C2CCOCC2)cc1Cl (racemic) [Example 36, 2-(3-chloro-4-cyanophenyl)-3-(tetrahydro-2H-pyran-4-yl)-3,3a,4,5-tetrahydro-2H-benzo[g]indazole-7-carboxylic acid]
0.205 | N#Cc1ccc(N2N=C3c4ccc(C(=O)O)cc4CCC3C2C2=CCCC2)cc1 (racemic) [Example 50, 2-(4-cyanophenyl)-3-cyclopent-1-en-1-yl-3,3a,4,5-tetrahydro-2H-benzo[g]indazole-7-carboxylic acid]
4.98 | N#Cc1ccc(N2N=C3c4ccc(C(=O)O)cc4CCC3C2c2ccno2)cc1 (racemic) [Example 52, 2-(4-cyanophenyl)-3-isoxazol-5-yl-3,3a,4,5-tetrahydro-2H-benzo[g]indazole-7-carboxylic acid]

Reference: patent US7781428B2 (Pfizer Inc., priority 2006, dated 2010)
